From patent publication EP4778922A1, “BICYCLIC COMPOUND, AND PREPARATION METHOD THEREFOR AND PHARMACEUTICAL USE THEREOF” (Shanghai Jeyou Pharmaceutical Co., Ltd., priority 2023, dated 2025) come the findings set out here.

pIC50: −log10 of the molar value.

One may read the pIC50 as the negative decadic logarithm of the IC50, by convention in mol/L. A low value points to a high IC50. What is called AUC(0-inf) is the area under the concentration-time curve extrapolated to infinity. A lower AUC(0-inf) goes with low exposure. The Cmax is the peak of the concentration-time curve. By half-life is commonly meant the time in which the quantity being followed falls by half. As a reminder, the Tmax is the time at which the peak concentration occurs.

Series [1] has as its system LNCaP cells. As to the kind of experiment: Cell proliferation inhibition assay in LNCaP cells (0.2 nM DHT, CellTiter-Glo, 7 days). Type of series: cell-based, human. Particulars: Homo sapiens, 168 h. The procedure: • 1. The human prostate cancer cell lines 22RV1 and LNCaP were purchased from ATCC. […] The cell concentration was adjusted to an appropriate concentration (determined based on the results of cell density optimization experiments), and the cells were seeded into a 96-well plate. A 100 µL cell suspension was added, resulting in 3000 cells per well. […] On the second day, for 22Rv1 cells, test compounds at different concentrations were added, and the cells were incubated at 37°C in a 5% CO2 incubator for 7 days; for LNCaP cells, test compounds at different concentrations were added first, and after 1 hour of treatment, 0.2 nM DHT was added. The cells were then incubated at 37°C in a 5% CO2 incubator for 7 days. • 4. After the incubation period, a volume of CellTiter-Glo detection reagent equal to the volume of the culture medium was added to each well. The plate was shaken and mixed thoroughly for 5 minutes, then incubated at room temperature for 10 minutes. Readings were taken using a PerkinElmer EnVision microplate reader. • 5.
The IC50 curve was fitted and the IC50 value was calculated using the software GraphPad Prism 8 with the calculation formula XY-analysis/Nonlinear regression (curve fit)/Dose response-Inhibition/log (inhibitor) vs. response-Variable slope (four parameters).

The test system of series [2] is 22RV1 cells. As to the kind of experiment: Cell proliferation inhibition assay in 22RV1 cells (CellTiter-Glo, 7 days). Type of series: cell-based, human. The settings on record: Homo sapiens, 22Rv1, 168 h. The essentials: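 LNCaP and 22RV1 human prostate cancer cells, 3000 per well, exposed to graded compound for 7 days at 37°C, 5% CO2; LNCaP got 0.2 nM DHT 1 h after compound. Viability by CellTiter-Glo luminescence; IC50 from four-parameter variable-slope fit.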
(In general: In ATP-based viability assays light output follows the ATP content of the culture.)

Series [3] in a line: Mouse pharmacokinetic test. Type of series: in vivo, ICR mice. Particulars: plasma, po, 30 mg/kg, PO-30mpk; for Tmax: read-out: Tmax. The procedure: Formulation preparation: The dosing solutions were prepared on the day of administration.
Six healthy male naive ICR mice weighing 25-30 g were selected and divided into two groups (intravenous and oral groups), with three mice in each group, and administered a single dose. […] Feeding was resumed 4 h after administration. Timing was initiated following intravenous and oral administration. […] The collected whole blood was briefly vortexed twice for mixing, placed on wet ice, and centrifuged at 4°C and 8000 rpm for 5 min within 1 h. The supernatant plasma was collected and stored at -80°C until processing and analysis. Table 3: Pharmacokinetics in mice

In series [1], `CC(C)(c1ccc(-c2cnc(OCc3ccnc(N4CC(S(=N)(=O)C5CC5)C4)n3)cn2)cc1)c1cc(Cl)c(OCCCl)c(C#N)c1` (single isomer, unassigned) [Compound 350B] showed a pIC50 of 6.30.

`CC(C)(c1cc(Cl)c(OCCCl)c(C#N)c1)c1ccc(-c2ccc(OCc3ccnc(N4CC(S(C)(=N)=O)C4)n3)nc2)cn1` (centres unmarked) [Compound 479] showed a negative logarithm of the IC50 (pIC50) in series [1] of 6.15.

In the case of `CC(C)(c1ccc(-c2ccc(OCC34CC(c5cnc(P(C)(C)=O)nc5)(C3)C4)cn2)cc1)c1cc(Cl)c(OCCCl)c(C#N)c1` [Compound 367], the pIC50 in series [1] was 6.04.

Consider `CC(C)(c1ccc(-c2ccc(OCc3ccnc(N4CC5(CCS5(=N)=O)C4)n3)cn2)cc1)c1cc(Cl)c(OCCCl)c(C#N)c1` (centres unmarked) [Compound 404], for which the negative-log IC50 (pIC50) in series [1] is 6.31.

Consider `CC(C)(c1ccc(-c2cnc(OCc3ccnc(N4CC(S(C)(=N)=O)C4)n3)nc2)cc1)c1cc(Cl)c(OCCCl)c(C#N)c1` (centres unmarked) [Compound 372], for which the pIC50 in series [1] is 6.18. The pIC50 values of the last two compounds are within 0.2 log units of each other.

`CC(C)(c1ccc(-c2ccc(OCc3ccnc(N4CC(S(C)(=O)=O)C4)n3)nn2)cc1)c1cc(Cl)c(OCCCl)c(C#N)c1` [Compound 423] showed a negative logarithm of the IC50 (pIC50) in series [1] of 6.34.

As to `CC(C)(c1ccc(-c2cnc(COc3ccnc(N4CC(S(C)(=O)=O)C4)n3)nc2)cc1)c1cc(Cl)c(OCCCl)c(C#N)c1` [Compound 383], the pIC50 in series [1] was 6.24. The pIC50 values of the last two compounds are within 0.2 log units of each other.

In turn, `CC(C)(c1ccc(-c2cnc(OCc3ccc(-c4cnc(P(C)(C)=O)nc4)nc3)nc2)cc1)c1cc(Cl)c(OCCCl)c(C#N)c1` [Compound 374] showed a negative logarithm of the IC50 (pIC50) in series [1] of 6.04.

As for `CC(C)(c1ccc(-c2ccc(OCc3ccnc(C4CN(S(C)(=O)=O)C4)n3)cc2)cc1)c1cc(Cl)c(OCCCl)c(C#N)c1` [Compound 145], the pIC50 in series [2] was 6.22. Besides, in series [3], the AUC(0-inf) was determined as 273 µg·h/mL, the peak level (Cmax) was 15800 ng/mL, the half-life is 15.3 h and the Tmax is 4 h.

`CC(C)(c1ccc(-c2cccc3c(OCc4ccnc(P(C)(C)=O)n4)nccc23)cc1)c1cc(Cl)c(OCCCl)c(C#N)c1` [Compound 345]: the pIC50 in series [1] was 6.64.

On to `CNS(=O)(=O)C1CN(c2nccc(COc3ccc(-c4ccc(C(C)(C)c5cc(Cl)c(OCCCl)c(C#N)c5)cc4)nc3)n2)C1` [Compound 258], for which the negative-log IC50 (pIC50) in series [2] is 6.20. Also, in series [3], the total exposure AUC(0-inf) amounted to 323 µg·h/mL, the peak level (Cmax) was 39200 ng/mL, the half-life was 5.2 h and the Tmax was 3 h.

As for `CC(C)(c1cc(Cl)c(OCCCl)c(C#N)c1)c1ccc(-c2ccc(OCc3ccnc(P(C)(C)=O)n3)cc2)cn1` [Compound 474], the pIC50 in series [1] was 6.17.

With `CC(C)(c1ccc(-c2ccc(OCc3ccnc(N4CC(S(C)(=N)=O)C4)n3)cn2)cc1)c1cc(Cl)c(OCCCl)c(C#N)c1` (racemic) [Compound 242], the pIC50 in series [2] was 6.31. In series [3], the AUC(0-inf) was determined as 607 µg·h/mL, the highest level (Cmax) was 78000 ng/mL, the half-life is 4.4 h and the time of peak concentration (Tmax) is 4 h.

In series [2], `CC(C)(c1ccc(-c2ccc(OCc3ccnc(N=S(C)(C)=O)n3)cc2)cc1)c1cc(Cl)c(OCCCl)c(C#N)c1` [Compound 44] had a pIC50 of 6.03. Moreover, in series [3], the AUC(0-inf) was 219 µg·h/mL, the Cmax was found to be 11700 ng/mL, the half-life was 9.35 h and the time of peak concentration (Tmax) was found to be 4.67 h.

Turning to `CC(C)(c1ccc(-c2ccc(OCc3ccnc(N4CC(S(C)(=O)=NC#N)C4)n3)cn2)cc1)c1cc(Cl)c(OCCCl)c(C#N)c1` (centres unmarked) [Compound 413], in series [1], the negative-log IC50 (pIC50) is 6.10.

The compound `CC(C)(c1ccc(-c2ccc3c(c2)C(=O)N(Cc2ccnc(P(C)(C)=O)n2)C3)cc1)c1cc(Cl)c(OCCCl)c(C#N)c1` [Compound 439] showed a pIC50 in series [1] of 6.33.

In turn, `CC(C)(c1cc(Cl)c(OCCCl)c(C#N)c1)c1ccc(-c2ccc(OCc3ccnc(N4CC(S(C)(=O)=O)C4)n3)nc2)cn1` [Compound 478] gave a negative-log IC50 (pIC50) in series [1] of 6.11.

Turning to `CC(C)(c1cc(Cl)c(OCCCl)c(C#N)c1)c1ccc(-c2ccc(OCc3ccnc(N4CC(S(C)(=N)=O)C4)n3)cn2)cn1` (centres unmarked) [Compound 475], the pIC50 in series [1] was 6.15.

As to `CC(C)(c1ccc(-c2ccc(OCc3ccnc(N4CC(S(C)(=O)=O)C4)n3)cc2)nc1)c1cc(Cl)c(OCCCl)c(C#N)c1` [Compound 460], in series [1], the negative-log IC50 (pIC50) was 6.35.

On to `CC(C)(c1ccc(-c2ccc(Oc3ncc(-c4cnc(CP(C)(C)=O)nc4)cn3)cc2)cc1)c1cc(Cl)c(OCCCl)c(C#N)c1` [Compound 399], for which the pIC50 in series [1] is 6.01.

In turn, `CC(C)(c1ccc(-c2ncc(OCc3ccc(-c4cnc(P(C)(C)=O)nc4)cc3)cn2)cc1)c1cc(Cl)c(OCCCl)c(C#N)c1` [Compound 272] showed a pIC50 in series [2] of 6.19. In series [3], the AUC(0-inf) was found to be 755 µg·h/mL, the peak level (Cmax) was 53200 ng/mL, the half-life is 5.8 h and the time to peak (Tmax) stood at 4 h.

`CC(C)(c1ccc(-c2ncc(OCc3ccnc(N4CC(S(C)(=N)=O)C4)n3)cn2)cc1)c1cc(Cl)c(OCCCl)c(C#N)c1` (single isomer, unassigned) [Compound 366A] had a negative-log IC50 (pIC50) in series [1] of 6.01.

In series [2], `CC(C)(c1ccc(-c2ccc(OCC3CN(c4ccnc(P(C)(C)=O)n4)C3)cc2)cc1)c1cc(Cl)c(OCCCl)c(C#N)c1` [Compound 70] gave a pIC50 of 6.30. Also, in series [3], the area under the curve AUC(0-inf) worked out at 187 µg·h/mL, the concentration peaked (Cmax) at 14700 ng/mL, the half-life is 5.13 h and the time of peak concentration (Tmax) was found to be 4 h.

`CC(C)(c1ccc(-c2ccc(OCc3ncc(P(C)(C)=O)s3)cc2)cc1)c1cc(Cl)c(OCCCl)c(C#N)c1` [Compound 221] had a negative-log IC50 (pIC50) in series [2] of 5.98. In addition, in series [3], the area under the curve AUC(0-inf) was found to be 464 µg·h/mL, the peak level (Cmax) was 19300 ng/mL, the half-life was 10.4 h and the Tmax amounted to 5 h.

With `CC(C)(c1ccc(-c2ccc(OCc3ccnc(N4CC(NS(C)(=O)=O)C4)n3)cc2)cc1)c1cc(Cl)c(OCCCl)c(C#N)c1` [Compound 161], the pIC50 in series [2] was 6.35. In series [3], the total exposure AUC(0-inf) stood at 376 µg·h/mL, the peak level (Cmax) was 11800 ng/mL, the half-life is 22.7 h and the Tmax stood at 4 h.

In series [2], `CC(C)(c1ccc(-c2ccc(OCc3ccnc(N4CC5(COC5)C4)n3)cn2)cc1)c1cc(Cl)c(OCCCl)c(C#N)c1` [Compound 82] showed a pIC50 of 6.07. Further, in series [3], the area under the curve AUC(0-inf) stood at 171 µg·h/mL, the Cmax stood at 24900 ng/mL, the half-life was 8.3 h and the Tmax amounted to 2.7 h.

`CC(C)(c1ccc(-c2ccc(OCc3ccnc(N4CC(CS(C)(=O)=O)C4)n3)cc2)cc1)c1cc(Cl)c(OCCCl)c(C#N)c1` [Compound 175] showed a negative-log IC50 (pIC50) in series [2] of 6.31. Further, in series [3], the total exposure AUC(0-inf) amounted to 320 µg·h/mL, the Cmax was 9200 ng/mL, the half-life was 21.1 h and the Tmax is 4 h.

The compound `CC(C)(c1ccc(-c2ccc(OCc3ccnc(N4CC(S(N)(=O)=O)C4)n3)cn2)cc1)c1cc(Cl)c(OCCCl)c(C#N)c1` [Compound 180] showed a pIC50 in series [2] of 6.10. In addition, in series [3], the total exposure AUC(0-inf) was 309 µg·h/mL, the Cmax turned out to be 34600 ng/mL, the half-life is 5.17 h and the Tmax is 3 h.

In series [2], `CC(C)(c1ccc(-c2ccc(OCc3cccc(S(C)(=N)=O)n3)cc2)cc1)c1cc(Cl)c(OCCCl)c(C#N)c1` (centres unmarked) [Compound 188] gave a pIC50 of 5.99. In addition, in series [3], the AUC(0-inf) amounted to 211 µg·h/mL, the highest level (Cmax) was 17300 ng/mL, the half-life is 7.5 h and the Tmax turned out to be 3 h.
